From paper PMC10135964, “One Scaffold, Two Conformations: The Ring-Flip of the Messenger InsP8 Occurs under Cytosolic Conditions” (Biomolecules, 2023) come the findings set out here.

The data set can be described thus: 1H,13C BIRD-HMQC NMR quantification of axial vs. equatorial conformer. It is filed as physicochemical. To be noted: 50 µM, 130 mM KCl, 10 mM NaCl, 4 °C. Here is the method:
Samples for HMQC-NMR studies contained 50 µM ^13C6-labeled InsPs (InsP6/5PP-InsP5/InsP8), 2 mM bis-tris-propane, 130 mM KCl, 10 mM NaCl and 0/50/250 µM MgCl2 in D2O.
BIRD-HMQC NMR spectra were recorded at 277 K and 600 MHz (^1H frequency) on a Bruker AV-III NMR spectrometer (Bruker Biospin, Rheinstetten, Germany) using cryogenically cooled 5 mm QCI-triple resonance probe equipped with one-axis self-shielded gradients. The spectrometer was operated using topspin 3.5 pl6 software. Instrument temperature was calibrated against […] according to Findeisen et al.. Acquisition parameters were SW(^13C): 60–90 ppm, NS: 128, TD(^13C): 64.
BIRD-HMQC spectra were recorded at 277 K as described above, with samples containing 200 µM InsPs, 130 mM KCl, 10 mM NaCl, 2mM BTP in D2O. pH was set to pH* 9.5 for InsP6, pH* 8.8 for 5PP-InsP5 and pH* 8.5 for InsP8 (pH = 0.929 × pH* + 0.42 [35]). NOESY-HMQC spectra of the same samples were subsequently recorded using mixing times of 80 ms for InsP6 and 5PP-InsP5 and 200 ms for InsP8. Conformational exchange on the time-scale of the experiment created cross-peaks between corresponding peaks in different conformations, which allowed us to assign each peak of the equatorial conformer to its axial counterpart.

SMILES strings stand for the structures. Entries after “also recorded” stand apart in the source; their conditions may differ.

With `O=P(O)(O)O[C@@H]1[C@@H](OP(=O)(O)O)[C@H](OP(=O)(O)OP(=O)(O)O)[C@@H](OP(=O)(O)O)[C@H](OP(=O)(O)OP(=O)(O)O)[C@@H]1OP(=O)(O)O` [InsP8, 1,5(PP)2-InsP4], the “proportion in axial conformation” value was “about 10%” (pH* 7.5 (=pH 7.4), 1 equiv. Mg2+); “about half; also recorded: almost equally distributed between its axial and equatorial forms” (pH* 7.5, 5 equiv. Mg2+); “about half” (pH* 8.5, without divalent cations).
